Values of other authors as cited in patent US20190374552A1, “MULTIFUNCTIONAL FORMULATIONS AND METHODS TO CONTROL DERMATITIS AND PRURITUS” (priority 2016, published 2019).
Entries after “also recorded” stand apart in the source; their conditions may differ. One block for each molecule: values may come before it.

Columns and labels:
TRPA1 [1] = target: T1, TRPA1 (Homo sapiens, UniProt O75762)
Target sequence in this assay (O75762 whole entry): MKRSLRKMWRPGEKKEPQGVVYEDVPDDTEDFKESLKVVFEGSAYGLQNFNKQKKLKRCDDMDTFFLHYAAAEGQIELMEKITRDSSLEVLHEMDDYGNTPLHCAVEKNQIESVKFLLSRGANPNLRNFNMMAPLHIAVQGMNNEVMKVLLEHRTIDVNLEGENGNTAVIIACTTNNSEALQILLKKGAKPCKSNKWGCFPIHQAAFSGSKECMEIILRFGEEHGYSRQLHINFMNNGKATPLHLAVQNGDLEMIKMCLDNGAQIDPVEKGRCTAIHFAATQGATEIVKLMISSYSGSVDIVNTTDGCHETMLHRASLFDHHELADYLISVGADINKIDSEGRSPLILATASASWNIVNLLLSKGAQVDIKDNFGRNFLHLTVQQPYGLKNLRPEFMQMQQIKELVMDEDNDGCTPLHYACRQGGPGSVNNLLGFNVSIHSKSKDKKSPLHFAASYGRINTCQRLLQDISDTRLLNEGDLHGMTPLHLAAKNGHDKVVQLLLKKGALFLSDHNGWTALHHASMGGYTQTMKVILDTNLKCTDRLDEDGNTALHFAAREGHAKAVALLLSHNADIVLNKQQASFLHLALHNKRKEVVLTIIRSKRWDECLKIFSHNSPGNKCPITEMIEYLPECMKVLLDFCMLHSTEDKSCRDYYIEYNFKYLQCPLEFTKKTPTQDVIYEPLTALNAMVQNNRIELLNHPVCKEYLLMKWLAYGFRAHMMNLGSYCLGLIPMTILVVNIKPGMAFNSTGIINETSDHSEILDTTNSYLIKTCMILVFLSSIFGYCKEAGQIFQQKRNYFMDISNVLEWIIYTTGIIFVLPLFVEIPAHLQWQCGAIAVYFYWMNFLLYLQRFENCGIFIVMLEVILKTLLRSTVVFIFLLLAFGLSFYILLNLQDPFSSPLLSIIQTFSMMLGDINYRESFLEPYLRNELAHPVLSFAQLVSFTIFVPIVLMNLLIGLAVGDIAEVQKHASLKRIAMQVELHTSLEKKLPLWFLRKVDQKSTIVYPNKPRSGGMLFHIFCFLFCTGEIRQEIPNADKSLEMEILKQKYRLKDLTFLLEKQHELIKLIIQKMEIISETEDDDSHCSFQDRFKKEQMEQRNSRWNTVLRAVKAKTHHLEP

TRPA1 [2] = target: T1, TRPA1; details: for inhibition of hTRPA1 activation by menthol and allyl isothiocyanate: compound at 1 mM, menthol 1 mM, allyl isothiocyanate 10 uM
Target sequence in this assay (O75762 whole entry): as above

leukocyte migration = details: induced by injection of carrageenan
scratching behavior ACD = details: mice exposed to haptens oxazolone and urushiol
TRPA1 [3] = target: T1, TRPA1; remark: listed apart in the source
Target sequence in this assay (O75762 whole entry, species assumed): as the sequence (O75762 whole entry) above

TRPM8 = TRPM8 (Homo sapiens, UniProt Q7Z2W7)
Chain of TRPM8 (Q7Z2W7 whole entry, species assumed): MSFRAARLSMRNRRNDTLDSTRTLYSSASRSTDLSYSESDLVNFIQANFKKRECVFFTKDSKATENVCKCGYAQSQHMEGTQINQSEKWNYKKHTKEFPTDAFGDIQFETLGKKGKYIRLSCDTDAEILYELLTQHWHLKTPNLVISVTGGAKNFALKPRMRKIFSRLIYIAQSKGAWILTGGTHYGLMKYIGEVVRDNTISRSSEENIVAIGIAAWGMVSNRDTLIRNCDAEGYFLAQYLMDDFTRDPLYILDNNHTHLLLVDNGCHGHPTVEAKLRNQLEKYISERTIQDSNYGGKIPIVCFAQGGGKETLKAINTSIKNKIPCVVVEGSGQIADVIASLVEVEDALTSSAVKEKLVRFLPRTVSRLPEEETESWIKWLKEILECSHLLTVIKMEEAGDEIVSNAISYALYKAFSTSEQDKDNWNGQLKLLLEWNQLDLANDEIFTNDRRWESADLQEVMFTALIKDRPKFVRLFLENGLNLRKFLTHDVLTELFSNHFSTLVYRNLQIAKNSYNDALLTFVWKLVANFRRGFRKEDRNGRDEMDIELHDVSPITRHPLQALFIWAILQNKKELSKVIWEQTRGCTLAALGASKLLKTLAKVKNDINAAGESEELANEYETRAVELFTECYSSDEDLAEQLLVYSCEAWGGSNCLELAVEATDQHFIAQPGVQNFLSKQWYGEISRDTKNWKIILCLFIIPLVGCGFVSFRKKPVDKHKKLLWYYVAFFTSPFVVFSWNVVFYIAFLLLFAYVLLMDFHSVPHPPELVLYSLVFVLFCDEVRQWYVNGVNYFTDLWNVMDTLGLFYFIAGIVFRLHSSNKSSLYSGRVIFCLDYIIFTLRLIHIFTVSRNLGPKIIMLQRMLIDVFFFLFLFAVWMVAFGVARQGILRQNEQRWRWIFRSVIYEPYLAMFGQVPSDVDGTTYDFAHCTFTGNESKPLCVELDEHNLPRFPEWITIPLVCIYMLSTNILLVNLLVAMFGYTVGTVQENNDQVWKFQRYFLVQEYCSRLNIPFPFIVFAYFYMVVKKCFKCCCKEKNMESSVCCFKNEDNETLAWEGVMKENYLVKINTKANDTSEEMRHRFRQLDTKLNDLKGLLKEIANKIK

TRPV1 [4] = target: T2, TRPV1 (Homo sapiens, UniProt Q8NER1)
Target sequence in this assay (Q8NER1 whole entry, species assumed): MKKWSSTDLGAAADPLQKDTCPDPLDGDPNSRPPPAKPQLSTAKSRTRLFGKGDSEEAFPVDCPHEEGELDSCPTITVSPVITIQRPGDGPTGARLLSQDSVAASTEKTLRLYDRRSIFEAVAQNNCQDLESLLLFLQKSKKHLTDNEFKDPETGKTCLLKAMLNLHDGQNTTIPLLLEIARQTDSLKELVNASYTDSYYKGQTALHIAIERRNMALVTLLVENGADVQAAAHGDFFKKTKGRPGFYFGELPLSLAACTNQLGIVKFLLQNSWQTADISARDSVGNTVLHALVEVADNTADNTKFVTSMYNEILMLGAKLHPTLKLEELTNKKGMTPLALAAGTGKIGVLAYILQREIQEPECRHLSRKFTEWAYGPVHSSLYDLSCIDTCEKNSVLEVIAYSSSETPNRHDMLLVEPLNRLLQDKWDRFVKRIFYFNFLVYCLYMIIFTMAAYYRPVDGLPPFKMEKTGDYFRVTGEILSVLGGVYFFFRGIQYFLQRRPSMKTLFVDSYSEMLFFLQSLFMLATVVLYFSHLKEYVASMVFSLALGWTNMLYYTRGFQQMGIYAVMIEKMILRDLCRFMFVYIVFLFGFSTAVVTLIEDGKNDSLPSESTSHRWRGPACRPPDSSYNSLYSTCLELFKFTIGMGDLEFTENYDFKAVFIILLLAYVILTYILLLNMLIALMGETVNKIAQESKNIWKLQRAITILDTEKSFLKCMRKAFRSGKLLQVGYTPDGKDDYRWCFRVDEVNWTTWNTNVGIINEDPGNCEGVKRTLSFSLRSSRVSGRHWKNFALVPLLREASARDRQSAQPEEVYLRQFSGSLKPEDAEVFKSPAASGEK

TRPA1 [5] = target: T1, TRPA1; remark: listed apart in the source
Target sequence in this assay (O75762 whole entry, species assumed): as the sequence (O75762 whole entry) above

TRPV1 [6] = target: T2, TRPV1; remark: listed apart in the source
Target sequence in this assay (Q8NER1 whole entry, species assumed): as the sequence (Q8NER1 whole entry, species assumed) above

pain and itch responses = details: mice
TRPV1 [7] = test system: TRPV1
TRPV1 [8] = target: TRPV1 (Rattus norvegicus, UniProt O35433); details: compared with docosahexaenoic acid
Chain of TRPV1 (Rattus norvegicus, UniProt O35433) (O35433 whole entry): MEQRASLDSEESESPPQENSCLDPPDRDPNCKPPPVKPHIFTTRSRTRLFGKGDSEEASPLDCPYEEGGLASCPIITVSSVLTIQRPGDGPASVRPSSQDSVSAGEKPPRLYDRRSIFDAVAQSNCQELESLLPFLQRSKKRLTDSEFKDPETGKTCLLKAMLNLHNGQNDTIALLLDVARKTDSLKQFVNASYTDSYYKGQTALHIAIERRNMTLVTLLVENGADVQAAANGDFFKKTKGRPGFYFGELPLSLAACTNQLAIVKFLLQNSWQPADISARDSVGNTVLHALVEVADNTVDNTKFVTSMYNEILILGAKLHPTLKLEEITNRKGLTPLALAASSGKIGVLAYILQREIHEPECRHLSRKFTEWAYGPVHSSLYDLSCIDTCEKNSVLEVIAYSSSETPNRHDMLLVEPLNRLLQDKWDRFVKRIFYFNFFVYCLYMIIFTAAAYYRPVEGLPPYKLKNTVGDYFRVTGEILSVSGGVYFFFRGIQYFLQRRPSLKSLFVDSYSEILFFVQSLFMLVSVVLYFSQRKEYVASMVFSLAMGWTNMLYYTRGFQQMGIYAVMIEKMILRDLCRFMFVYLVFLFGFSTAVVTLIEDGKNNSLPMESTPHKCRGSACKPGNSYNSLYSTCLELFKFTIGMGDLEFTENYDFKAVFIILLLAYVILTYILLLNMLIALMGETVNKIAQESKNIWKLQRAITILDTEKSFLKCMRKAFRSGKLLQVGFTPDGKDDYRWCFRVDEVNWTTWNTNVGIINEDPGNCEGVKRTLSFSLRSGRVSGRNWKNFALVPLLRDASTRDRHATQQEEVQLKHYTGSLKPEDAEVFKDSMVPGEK

TRPV1 [9] = target: T2, TRPV1; remark: listed apart in the source
Target sequence in this assay (Q8NER1 whole entry): as the sequence (Q8NER1 whole entry, species assumed) above

human TRPM8 (hTRPM8) = human TRPM8 (hTRPM8) (Homo sapiens, UniProt Q7Z2W7)
Chain of human TRPM8 (hTRPM8) (Q7Z2W7 whole entry): as the sequence (Q7Z2W7 whole entry, species assumed) above

hTRPV2 = target: T3, hTRPV2 (Homo sapiens, UniProt Q9Y5S1)
T3 sequence (Q9Y5S1 1-764): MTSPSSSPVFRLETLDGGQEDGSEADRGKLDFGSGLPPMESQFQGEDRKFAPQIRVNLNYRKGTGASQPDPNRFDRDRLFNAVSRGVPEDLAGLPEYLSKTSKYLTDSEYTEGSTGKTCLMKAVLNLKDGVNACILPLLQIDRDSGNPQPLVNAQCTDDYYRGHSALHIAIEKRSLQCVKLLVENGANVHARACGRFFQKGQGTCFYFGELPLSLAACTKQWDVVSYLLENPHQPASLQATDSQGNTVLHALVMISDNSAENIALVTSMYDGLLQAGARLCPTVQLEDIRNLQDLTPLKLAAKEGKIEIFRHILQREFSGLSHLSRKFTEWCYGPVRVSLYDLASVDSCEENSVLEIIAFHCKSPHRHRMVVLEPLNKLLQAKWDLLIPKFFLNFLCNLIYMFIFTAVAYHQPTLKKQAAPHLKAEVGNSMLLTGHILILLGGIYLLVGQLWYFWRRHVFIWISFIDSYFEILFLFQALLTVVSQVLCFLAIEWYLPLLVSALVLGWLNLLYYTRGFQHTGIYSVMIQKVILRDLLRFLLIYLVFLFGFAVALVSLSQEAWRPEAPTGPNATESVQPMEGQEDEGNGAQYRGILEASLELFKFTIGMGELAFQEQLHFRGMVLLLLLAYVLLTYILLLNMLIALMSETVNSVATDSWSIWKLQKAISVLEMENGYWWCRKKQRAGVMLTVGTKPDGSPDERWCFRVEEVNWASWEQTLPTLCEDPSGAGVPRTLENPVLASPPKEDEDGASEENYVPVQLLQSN

histaminergic itch = details: topical application, human trials

activation of hTRPA1 (TRPA1 [1]): did not activate
Molecule: CC12CCC(CC1=O)C2(C)C (stereo not shown) [camphor]

inhibition of hTRPA1 activation by menthol and allyl isothiocyanate (TRPA1 [2]): completely inhibited | activation of hTRPA1 (TRPA1 [1]): did not activate
Molecule: CC12CCC(C1)C(C)(C)C2O (stereo not shown) [fenchyl alcohol]

inhibition of hTRPA1 activation by menthol and allyl isothiocyanate (TRPA1 [2]): completely inhibited | activation of hTRPA1 (TRPA1 [1]): did not activate
Molecule: CC1(C)C2CCC1(C)C(O)C2 (stereo not shown) [borneol]
leukocyte migration (leukocyte migration): reduce | inhibition of TNF-a and IL-6 (TNF-a and IL-6): inhibits

TRPA1 channel function (TRPA1 [3]): not affected | TRPM8 channel function (TRPM8): not affected | TRPV1 channel activity (TRPV1 [4]): inhibits
Molecule: Hyaluronan [HA]

block of TRPA1 agonist AITC (TRPA1 [5]): blocked | block of TRPV1 agonist capsaicin (TRPV1 [6]): blocked
Molecule: O=C(CCCCC1CCSS1)NCCC(=O)NC(Cc1cnc[nH]1)C(=O)O (stereo not shown) [ADM 09]

activation of hTRPV1 (TRPV1 [9]): did not activate | activation of hTRPM8 (human TRPM8 (hTRPM8)): activates | activation of hTRPA1 (TRPA1 [1]): did not activate | activation of hTRPV2 (hTRPV2): did not activate
Molecule: CC12CCC(CC1)C(C)(C)O2 [1,8-cineole]
release of IL-I β, IL-4, IL-5 and TNF-a (stimulated lymphocytes): decreased

activation of hTRPA1 (TRPA1 [1]): did not activate
Molecule: O=C1CC2CC[C@H]1C2 [norcamphor]

More lines, now with the values behind:

Molecule: CC(C)c1ccc(NC(=O)Cn2cnc3c2c(=O)n(C)c(=O)n3C)cc1 [HC-030031]
scratching behavior (scratching behavior ACD): inhibition of scratching

Molecule: CC1(C)[C@@H]2CC[C@@]1(C)[C@](C)(O)C2 [2-methylosoborneol]
IC50 (TRPA1 [2]; TRPA1 activation by 20 uM AITC, read-out: IC-50 concentration, inactivation of TRPA1 activation): 120 µM | inhibition of hTRPA1 activation by menthol and allyl isothiocyanate (TRPA1 [2]): completely inhibited | activation of hTRPA1 (TRPA1 [1]): did not activate

Molecule: CCCCCCCC/C=C\CCCCCCCC(=O)O [oleic acid]
pain and itch responses (pain and itch responses): inhibited | TRPV1 activity (TRPV1 [7]): inhibited

Molecule: CC/C=C\C/C=C\C/C=C\CCCCCCCC(=O)O [a-linolenic acid]
TRPV1 inhibition (TRPV1 [8]): markedly more effective inhibitors

Molecule: CC1CCC(C(C)C)C(O)C1 (stereo not shown) [Example 1-menthol, 1-menthol]
activation of hTRPM8 (human TRPM8 (hTRPM8)): activation | activation of hTRPA1 (TRPA1 [1]): activated | effect on histaminergic / experimentally induced itch (histaminergic itch): significant inhibitory effects; also recorded: significant and pronounced anti-pruritic effect; also recorded: relieved
